Where “and” joins values, the source holds several entries; their conditions need not be identical. Identical values can stand only once.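 Five concentrations, 48 hours, 96-well plates. GI50 = concentration required for 50% inhibition of growth. TGI: concentration producing complete growth inhibition.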

Assay in all cases: DTP human tumour cell line panel, 48 h
The subject of test [1] is HCT-116 colon.
Test [2] has as its system HL-60(TB) leukemia.
In test [3] the test system is T-47D breast.
For test [4], the system named is OVCAR-5 ovarian.
Test [5] concerns K-562 leukemia.
In test [6] the test system is 786-0 renal.
In test [7] the test system is HOP-62 NSCLC.
Test [8] deals with LOX IMVI melanoma.
Test [9] deals with COLO 205 colon.
In test [10] the test system is OVCAR-3 ovarian.

Turning to `OC1(c2ccc(Cl)c(C(F)(F)F)c2)CCN(CCCC(c2ccc(F)cc2)c2ccc(F)cc2)CC1`, the GI50 in [1] is 0.734 µM; in test [2], 1.01 µM; in test [3], 0.941 µM; in test [4], 0.868 µM; in test [5], 0.781 µM; in [6] it was 0.832 µM. Moreover, the GI50 in [7] is 0.945 µM; in test [8] it was 0.821 µM; in [9], 0.856 µM; in test [10], 0.888 µM. The TGI in test [1] came to 1.41 µM; in [2] it was 2.02 µM; in test [3], 1.84 µM; in test [4], 1.77 µM; in [5], 1.75 µM; in [6], 1.52 µM. The TGI in [7] was 1.7 µM; in [8], 1.52 µM; in [9] it was 1.57 µM; in test [10], 1.63 µM.

As for `CC1(C)N=C(N)N=C(N)N1c1ccc(CCC(=O)Nc2ccc(S(=O)(=O)F)cc2)cc1`, the 50% growth inhibitory concentration (GI50) is 0.425 µM in test [1]; 0.854 µM in test [2]; 16.2 µM in test [3]; 0.599 µM in [4]; 0.533 µM in [5]; 0.529 µM in test [6]. Also, the GI50 in test [7] was 8.62 µM; in test [8], 1.66 µM; in test [9] it was 0.922 µM; in test [10], 8.03 µM. Further, the TGI in [1], in test [2], in [3], in test [4], in [5] and in test [6] was above 100 µM in each case. The TGI in test [7], in [8], in test [9] and in test [10] was above 100 µM in each case.

`CCCCCOc1ccc(/C=N/Nc2cc(C)nc3ccc(Cl)cc23)cc1`: the GI50 in test [1] was 1.04 µM; in test [2] it was 1.64 µM; in test [3] it was 1.76 µM; in [4], 1.82 µM; in [5] it was 0.691 µM; in test [6], 1.78 µM. The GI50 is 1.62 µM in [7], 1.69 µM in test [8], 1.89 µM in [9] and 1.97 µM in test [10]. For the same molecule, the TGI in test [1] came to 2.29 µM; in [2], 3.36 µM; in test [3], 3.71 µM; in test [4] it was 3.23 µM; in [5] it was 2.27 µM; in test [6], 3.32 µM. Further, the total growth inhibition concentration (TGI) turned out to be 3.29 µM in test [7], 3.15 µM in test [8], 3.61 µM in test [9] and 3.58 µM in test [10].

Regarding `N#CC1c2ccccc2C=CN1C(=O)CCCl` (stereo not given), the GI50 in [1] is 3.59 µM; in test [2] it was 9.09 µM; in test [3] it was 3.65 µM; in test [4], 10.3 µM; in test [5] it was 4.03 µM; in [6], 14 µM. The GI50 was 19.8 µM in [7], 3.94 µM in test [8], 2.48 µM in test [9] and 2.51 µM in [10]. In addition, the TGI in [1] is 11.3 µM; in [2], 40.8 µM; in [3], 17.1 µM; in test [4], 25.9 µM; in test [5], 60 µM; in test [6], 28 µM. Further, the TGI in test [7] is 40.6 µM; in test [8], 13.4 µM; in test [9], 5.65 µM; in test [10], 6.1 µM.

For the molecule `Nc1nc2c(c3cnccc13)C(c1ccc(Cl)c(Cl)c1)Cc1cnccc1-2` (stereo not given), the GI50 was 0.432 µM in test [1]; 0.384 µM in test [2]; 0.333 µM in test [3]; 2.52 µM in test [4]; 0.452 µM in test [5]; 0.565 µM in test [6]. Moreover, the GI50 was 0.583 µM in test [7], 0.293 µM in test [8], 0.356 µM in test [9] and 0.382 µM in [10]. Besides, the TGI was 11.2 µM in test [1]; 2.34 µM in test [2]; 18.2 µM in test [3]; 17 µM in test [4]; 32.8 µM in test [5]; 3.9 µM in test [6]. The TGI in test [7] amounted to 4.99 µM; in [8], 11 µM; in test [9], 1.09 µM; in test [10] it was 5.86 µM.

Consider `Nc1ncc(Cc2ccc3c(c2)OCO3)c(N)n1`, for which the TGI in test [1], in test [2], in [3], in [4], in [5] and in test [6] was above 100 µM in each case. Further, the TGI in test [7], in [8], in test [9] and in [10] was above 100 µM in each case.

On to `CNCc1cccc2c1OCCOCCOCCN(C)S(=O)(=O)c1ccc(cc1)-c1cnc(N)c(n1)C(=O)N2`, for which the GI50 in [1] is 1.19 µM; in [2] it was 0.578 µM; in test [3], 2.25 µM; in test [4], 3.39 µM; in test [5], 0.622 µM; in test [6], 0.446 µM. The GI50 is 1.77 µM in test [7], 1.05 µM in [8], 0.775 µM in test [9] and 1.59 µM in [10]. Also, the TGI worked out at 3.12 µM in test [1]; 3.14 µM in test [2]; 6.15 µM in test [3]; 8.57 µM in test [4]; 10.3 µM in test [5]; 1.99 µM in [6]. Further, the TGI in [7] came to 4.04 µM; in [8], 3.23 µM; in test [9], 3.23 µM; in test [10], 9.79 µM.

For the molecule `CCN(C)c1nc(N(C)CC)c2nc(N(C)CC)nc(N(C)CC)c2n1`, the TGI in test [1], in test [2], in [3], in test [4], in test [5] and in [6] was above 100 µM in each case. Further, the TGI in test [7], in test [8], in test [9] and in test [10] was above 100 µM each time.

As to `Cc1cccc(NC(=O)c2sc3nc4c(cc3c2N)C(=O)CCC4)c1`, the GI50 in test [1] is 0.333 µM; in [2] it was 0.393 µM; in test [3], 0.397 µM; in test [5] it was 0.105 µM; in test [6], 0.527 µM; in test [7], 0.425 µM. Further, the figures for the GI50 in test [8], in test [9] and in test [10] were 1 µM, 0.231 µM and 0.257 µM, respectively. Also, the TGI was above 100 µM in test [1]; above 100 µM in test [2]; above 100 µM in test [3]; above 57.7 µM in test [4]; above 100 µM in [5]; above 41 µM in test [6]. The total growth inhibition concentration (TGI) was above 43.7 µM in test [7], above 70 µM in test [8] and 1.18 µM in test [10].

On to `CC(=O)ON1CCCC(P(=O)(OCOC(=O)C(C)(C)C)OCOC(=O)C(C)(C)C)C1=O` (stereo not given), for which the GI50 in test [1] is 0.249 µM; in test [2], 0.653 µM; in test [3] it was 0.435 µM; in test [4], 1.94 µM; in test [5] it was 0.303 µM; in [6] it was 0.331 µM. The GI50 in [7] is 0.923 µM; in [8], 0.827 µM; in test [9], 0.925 µM; in test [10] it was 0.775 µM. The TGI in test [1] is 4.88 µM; in test [2], 2.87 µM; in [3] it was 7.5 µM; in test [4] it was 20.3 µM; in test [5], above 87.2 µM; in test [6], above 23.4 µM. Besides, the total growth inhibition concentration (TGI) in [7] is 7.53 µM; in [8] it was 15.3 µM; in [9], 5.71 µM; in [10], 4.49 µM.

As for `COc1cc(CNc2nc3cc(N)cc(N)c3nc2-c2ccccc2)cc(OC)c1`, the GI50 in [1] was 3.08 µM; in test [2], 3.84 µM; in test [3], 1.67 µM; in [4] it was 5.9 µM; in test [5], 3.6 µM; in [6] it was 12.7 µM. Further, the GI50 is 13.5 µM in [7], 4.51 µM in test [8], 2.38 µM in [9] and 1.86 µM in [10]. Moreover, the TGI in [1] was 11.3 µM; in test [2] it was above 100 µM; in [3] it was 4.57 µM; in test [4] it was 29.2 µM; in [5], 9.23 µM; in test [6] it was 44.2 µM. For the same molecule, the TGI in test [7] turned out to be 31.3 µM; in [8] it was 81.7 µM; in [9], 6.04 µM; in test [10] it was 4.52 µM.

In the case of `COC1N(C2CC(O)C(CO)O2)C(=O)NC(=O)C1(F)Br` (stereo not given), the GI50 was 12.6 µM in test [1]; 13.8 µM in test [2]; above 50 µM in [4]; 31.9 µM in test [6]; 8.35 µM in test [7]; 4.47 µM in [8]. Besides, the GI50 in test [9] is 42.6 µM; in test [10] it was above 50 µM. The TGI is 50 µM and > 100 µM in [1]; above 67 µM in [2]; above 100 µM in test [3]; above 100 µM in test [4]; 50 µM and > 100 µM in test [5]; 50 µM and > 100 µM in test [6]. The TGI in test [7] was 50 µM and > 66.5 µM; in [8] it was 50 µM and > 100 µM; in [9] it was 50 µM and > 100 µM; in test [10], above 100 µM.

As for `O=C1/C(=C/c2ccc(Cl)c(Cl)c2)CN(C(=O)CCN2CCC(=NO)CC2)C/C1=C\c1ccc(Cl)c(Cl)c1`, the GI50 in test [1] was 0.267 µM; in [2] it was 1.48 µM; in test [3] it was 1.1 µM; in [4], 1.13 µM; in test [5] it was 0.191 µM; in test [6], 0.609 µM. The GI50 in [7] was 1.26 µM; in test [8], 0.256 µM; in test [9], 0.391 µM; in [10] it was 0.574 µM. Also, the TGI in [1] came out at 0.778 µM; in [2] it was 4.37 µM; in [3], 3.59 µM; in test [4], 2.74 µM; in [6], 1.45 µM; in [7], 3.11 µM. In addition, the TGI stood at 0.612 µM in test [8], 1.54 µM in test [9] and 1.64 µM in [10].

Consider `CCn1c2c(c3ccccc3c1=O)C(=O)c1ccccc1-2`, for which the TGI in test [1], in [2], in test [3], in test [4], in [5] and in test [6] was above 100 µM each time. Besides, the TGI in test [7], in test [8], in [9] and in [10] was above 100 µM throughout.

For `COc1ccc2c(c1)C(=O)c1c-2c(Nc2ccccc2OC)nc2ccccc12`, the GI50 in [1], in test [2], in test [3], in [4], in [5] and in [6] was above 100 µM throughout. Also, the GI50 in test [7], in test [8], in [9] and in [10] was above 100 µM throughout. Also, the concentration for total growth inhibition (TGI) in test [1], in test [2], in [3], in test [4], in test [5] and in test [6] was above 100 µM throughout. Also, the TGI in [7], in [8], in test [9] and in [10] was above 100 µM throughout.

In the case of `Cc1c(C(=N)C(C#N)C#N)c(=N)oc2c1ccc1ccccc12`, the GI50 is 17.6 µM in test [1]; 8.76 µM in test [2]; 10.1 µM in test [3]; 39.5 µM in test [4]; 19.4 µM in test [5]; 29.1 µM in test [6]. In addition, the GI50 is 21.7 µM in [7], 11.9 µM in [8], 14.9 µM in [9] and 14.7 µM in [10]. Also, the TGI is above 100 µM in [1]; 85.8 µM in [2]; above 100 µM in test [3]; above 100 µM in test [4]; above 100 µM in test [5]; above 100 µM in [6]. The TGI was found to be 77.6 µM in test [7], 38.2 µM in test [8], 29.8 µM in [9] and 40.8 µM in test [10].

For orientation: GI50 means the concentration at which growth is held to half of that of the control. As usually defined, the TGI is the concentration at which net growth stops. Low values mean more potent growth arrest, high ones less potent growth arrest.
